Measurements from US20080009479A1, “Tetrahydrobenzazepines as Histamine H3 Receptor Ligands” (GLAXO GROUP LIMITED, priority 2004, published 2008).

Columns and labels:
[1] = target: T1, human histamine H3 receptor (Homo sapiens, UniProt Q9Y5N1); test: Histamine H3 functional antagonist assay (method A); assay type: biochemical; settings: [35S]GTPγS SPA, CHO membranes, histamine 0.3 μM, 96 well
T1 construct: expressed in transfected cells; host or cells: CHO K1 cells carrying the pSwitch regulatory plasmid, transfected with pGeneH3 and induced with mifepristone; clone 3H3; membranes prepared from these cells
Excerpt: (§1) A membrane preparation containing histamine H3 receptors may be prepared in accordance with the following procedures:
(§2) DNA encoding the human histamine H3 gene (Huvar, A. et al. (1999) Mol. Pharmacol. 55(6), 1101-1107) was cloned into a holding vector, pCDNA3.1 TOPO (InVitrogen) and its cDNA was isolated from this vector by restriction digestion of plasmid DNA with the enzymes BamH1 and Not-1 and ligated into the inducible expression vector pGene (InVitrogen) digested with the same enzymes. The GeneSwitch™ system (a system where in transgene expression is switched off in the absence of an inducer and switched on in the presence of an inducer) was performed as described in U.S. Pat. Nos. 5,364,791; 5,874,534; and 5,935,934. […]
(§3) 10-14 days post selection 10 nM Mifepristone (InVitrogen), was added to the culture medium to induce the expression of the receptor. […] Receptor bound antibody was detected by incubation of the cells for 60 minutes on ice with a goat anti rabbit antibody, conjugated with Alexa 488 fluorescence marker (Molecular Probes). Following two further washes with Sorting Medium, cells were filtered through a 50 μm Filcon™ (BD Biosciences) and then analysed on a FACS Vantage SE Flow Cytometer fitted with an Automatic Cell Deposition Unit. […]

human H1 receptor = target: T2, human H1 receptor (Homo sapiens, UniProt P35367); test: Histamine H1 functional antagonist assay (method A); assay type: cell-based; settings: FLIPR, FLUO4AM, suppression of histamine induced increase in fluorescence; read-out: antagonism pKb, histamine H1 functional antagonist assay (method A) (converted)
T2 construct: expressed in transfected cells; host or cells: Chinese hamster ovary cells stably expressing the human H1 receptor
Method: A histamine H1 cell line may be generated in accordance with the following procedure:
The human H1 receptor was cloned using known procedures described in the literature [Biochem. Biophys. Res. Commun. 1994, 201(2), 894]. Chinese hamster ovary cells stably expressing the human H1 receptor were generated according to known procedures described in the literature [Br. J. Pharmacol. 1996, 117(6), 1071].
(IV) Histamine H1 Functional Antagonist Assay (Method A)
The compound is assayed in a black walled clear bottom 384-well plate with cells seeded at 10000 cells/well. Tyrodes buffer is used throughout (NaCl 145 mM, KCl 2.5 mM, HEPES 10 mM, glucose 10 mM, MgCl2 1.2 mM, CaCl2 1.5 mM, probenecid 2.5 mM, pH adjusted to 7.40 with NaOH 1.0 M). Each well is treated with 10 μl of a solution of FLUO4AM (10 μM in Tyrodes buffer at pH 7.40) and plates are then incubated for 60 minutes at 37° C. Wells are then washed with Tyrodes buffer using a EMBLA cell washer system, leaving 40 μl buffer in each well, and then treated with 10 μl of test compound in Tyrodes buffer. […]
Functional antagonism is indicated by a suppression of histamine induced increase in fluorescence, as measured by the FLIPR system (Molecular Devices). By means of concentration effect curves, functional potencies are determined using standard pharmacological mathematical analysis.

[2] = target: T1, human histamine H3 receptor; test: Histamine H3 functional antagonist assay (method C); assay type: biochemical; settings: [35S]GTPγS LeadSeeker SPA, CHO membranes, histamine at EC80, 384 well, compound in DMSO; read-out: antagonism pKb, histamine H3 functional antagonist assay (method C) (converted)
Excerpt: as §1, §2, §3

[3] = target: T1, human histamine H3 receptor; test: Histamine H3 functional antagonist assay (method B); assay type: biochemical; settings: [35S]GTPγS LeadSeeker SPA, CHO membranes, histamine at EC80, 384 well; read-out: antagonism pKb, histamine H3 functional antagonist assay (method B) (converted)
Excerpt: as §1
DNA encoding the human histamine H3 gene (Huvar, A. et al. (1999) Mol. Pharmacol. 55(6), 1101-1107) was cloned into a holding vector, pCDNA3.1 TOPO (InVitrogen) and its cDNA was isolated from this vector by restriction digestion of plasmid DNA with the enzymes BamH1 and Not-1 and ligated into the inducible expression vector pGene (InVitrogen) digested with the same enzymes. The GeneSwitch™ system (a system where in transgene expression is switched off in the absence of an inducer and switched on in the presence of an inducer) was performed as described in U.S. Pat. Nos. 5,364,791; 5,874,534; and 5,935,934. Ligated DNA was transformed into competent DH5α E. coli host bacterial cells and plated onto Luria Broth (LB) agar containing Zeocin™ (an antibiotic which allows the selection of cells expressing the sh ble gene which is present on pGene and pSwitch) at 50 μg ml^−1. Colonies containing the re-ligated plasmid were identified by restriction analysis. DNA for transfection into mammalian cells was prepared from 250 ml cultures of the host bacterium containing the pGeneH3 plasmid and isolated using a DNA preparation kit (Qiagen Midi-Prep) as per manufacturers guidelines (Qiagen). […]
as §3

T1 sequence (Q9Y5N1 whole entry): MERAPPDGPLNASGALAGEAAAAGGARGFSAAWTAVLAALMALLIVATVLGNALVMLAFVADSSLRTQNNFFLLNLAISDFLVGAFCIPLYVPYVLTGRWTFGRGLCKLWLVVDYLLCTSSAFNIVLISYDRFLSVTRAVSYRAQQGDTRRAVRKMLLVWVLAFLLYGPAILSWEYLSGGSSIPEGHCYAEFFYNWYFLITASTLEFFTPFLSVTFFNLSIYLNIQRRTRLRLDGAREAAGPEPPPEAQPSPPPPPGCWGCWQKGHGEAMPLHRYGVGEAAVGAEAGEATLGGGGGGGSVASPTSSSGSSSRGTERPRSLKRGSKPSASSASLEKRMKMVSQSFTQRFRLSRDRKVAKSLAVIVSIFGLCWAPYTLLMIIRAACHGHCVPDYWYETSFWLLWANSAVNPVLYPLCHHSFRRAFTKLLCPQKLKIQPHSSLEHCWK
T2 sequence (P35367 whole entry): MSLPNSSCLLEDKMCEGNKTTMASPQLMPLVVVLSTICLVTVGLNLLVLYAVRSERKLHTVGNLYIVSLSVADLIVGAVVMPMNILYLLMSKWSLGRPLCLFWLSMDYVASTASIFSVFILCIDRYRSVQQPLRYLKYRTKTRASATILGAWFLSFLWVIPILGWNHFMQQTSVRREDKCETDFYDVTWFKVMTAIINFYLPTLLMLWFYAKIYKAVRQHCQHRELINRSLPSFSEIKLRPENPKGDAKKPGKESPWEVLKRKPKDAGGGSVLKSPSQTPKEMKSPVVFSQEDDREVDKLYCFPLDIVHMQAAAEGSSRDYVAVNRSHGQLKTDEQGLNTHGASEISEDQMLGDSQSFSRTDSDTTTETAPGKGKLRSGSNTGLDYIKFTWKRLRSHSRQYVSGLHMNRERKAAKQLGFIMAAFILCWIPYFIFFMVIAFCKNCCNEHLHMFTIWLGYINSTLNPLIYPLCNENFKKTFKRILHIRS

| SMILES | Kb [2] | Kb [3] | also measured |
| --- | --- | --- | --- |
| c1ccc(COc2ccc3c(c2)CCN(CC2CC2)CC3)cc1 [Example E19, 3-(Cyclopropylmethyl)-7-[(phenylmethyl)oxy]-2,3,4,5-tetrahydro-1H-3-benzazepine] |  |  | Kb ([1]; antagonism pKb, histamine H3 functional antagonist assay (method A)): < 10 nM; Kb (human H1 receptor): > 316 nM |
| CCC(C)N1CCc2ccc(Oc3ccc(N4CCCC4=O)cn3)cc2CC1 (centres unmarked) [Example E15, 1-(6-{[3-(1-Methylpropyl)-2,3,4,5-tetrahydro-1H-3-benzazepin-7-yl]oxy}-3-pyridinyl)-2-pyrrolidinone] | < 1 nM |  |  |
| c1cc2c(cc1OCCCC1CCCCC1)CCN(CC1CC1)CC2 [Example E20, 7-[(3-Cyclohexylpropyl)oxy]-3-(cyclopropylmethyl)-2,3,4,5-tetrahydro-1H-3-benzazepine] |  |  | Kb ([1]; read-out: antagonism pKb, histamine H3 functional antagonist assay (method A) (converted)): < 100 nM |
| CCN1CCc2ccc(Oc3ccc(N4CCCC4=O)cn3)cc2CC1 [Example E14, 1-{6-[(3-Ethyl-2,3,4,5-tetrahydro-1H-3-benzazepin-7-yl)oxy]-3-pyridinyl}-2-pyrrolidinone] |  | < 1 nM |  |
| O=C1CCCN1c1cnc(Oc2ccc3c(c2)CCN(CC2CC2)CC3)cn1 [Example E1, 1-(5-{[3-(Cyclopropylmethyl)-2,3,4,5-tetrahydro-1H-3-benzazepin-7-yl]oxy}-2-pyrazinyl)-2-pyrrolidinone] | < 1 nM | < 1 nM |  |
| O=C1CCCN1c1ccc(Oc2ccc3c(c2)CCN(CC2CC2)CC3)nc1 [Example E13, 1-(6-{[3-(Cyclopropylmethyl)-2,3,4,5-tetrahydro-1H-3-benzazepin-7-yl]oxy}-3-pyridinyl)-2-pyrrolidinone] |  | < 1 nM |  |
